Source: patent US20260248922A1, “TREATMENT OF SIGNS, SYMPTOMS AND/OR COMPLICATIONS OF VIRAL, BACTERIAL, PROTOZOAL, AND/OR FUNGAL INFECTIONS BY HIGH PENETRATION PRODRUGS” (priority 2022, published 2026)

Assays:
[1] = test system: LPS-induced fever; assay: Antipyretic activity, fever induced by LPS in rats; type: in vivo, Sprague Dawley rats
Experimental: The body temperature of rats was taken at 0 (2 hours after the challenge), 90 min, 180 min, and 270 min after the administration of the test compounds.

[2] = test system: paw edema; assay: Antiinflammatory activity, carrageenan paw edema in rats; type: in vivo, Wistar Rats; details: for Paw Volume Mean: transdermal, 20 mg/kg
[3] = test system: H1N1 virus; assay: H1N1 virus infection mouse model (Example 65); type: in vivo, mice; details: transdermal once a day
Experimental: (§1) A total of seventy mice (7 groups, 10/group) were used in this study. At day 0, mice were anesthetized with isoflurane and held in a dorsal recumbent position for administration of 0.1×TCID50/mouse virus (new batch) by internasal instillation, from day 2 post challenge, mice were received a single dose of different concentrations of test article or vehicle control once a day up to 15th day with dose initiation on day 2 post challenge. Group 1 served as an infected control group and was treated with vehicle (35% ethanol). […] Mice were observed following viral challenge for clinical signs of illness including body weights, health score, morbidity and mortality.
Lung lesions and peribronchiolitis of all deceased and surviving animals were characterized (Table 7).

[4] = Skin penetration through rabbit skin in vitro, modified Franz cells; details: receiving fluid pure water
[5] = test system: COVID-19; assay: COVID-19 infection mouse model (Example 70); type: in vivo, hACE2 mice; details: transdermal once a day
Experimental: as §1, with “seventy hACE2” for “seventy”, “3×10 PFU/mouse COVID-19” for “0.1×TCID50/mouse virus (new batch)”, “1” for “2”
Lung lesions and peribronchiolitis of all deceased and surviving animals were characterized (Table 17).

[6] = test system: cecal slurry-induced sepsis; assay: Cecal slurry-induced sepsis mouse model (Example 75); type: in vivo, C57/BL6 mice; details: transdermal once a day
Experimental: as §1, with “seventy C57/BL6” for “seventy”, “of 10 mg/mouse cecal slurry” for “of 0.1×TCID50/mouse virus (new batch)”, “by intraperitoneal (IP) injections,” for “by internasal instillation,”, “from hour” for “from day”, “on hour” for “on day”

[7] = test system: MRSA; assay: Sepsis model of MRSA infection in mice (Example 79); type: in vivo, C57/BL6 mice; details: transdermal once a day
Excerpt: as §1, with “seventy C57/BL6” for “seventy”, “of 2×10^7CFU S. aureus” for “of 0.1×TCID50/mouse virus (new batch)”, “by intraperitoneal (IP) injections,” for “by internasal instillation,”, “from hour” for “from day”, “on hour” for “on day”, “following MRSA” for “following viral”

[8] = test system: H1N1 virus; assay: H1N1 virus infection mouse model (Example 66); type: in vivo, mice; details: transdermal once a day
Experimental: as §1
Lung lesions and peribronchiolitis of all deceased and surviving animals were characterized (Table 9).

[9] = test system: H1N1 virus; assay: H1N1 virus infection mouse model (Example 67); type: in vivo, mice; details: transdermal once a day
Experimental: A total of seventy mice (7 groups, 10/group) were used in this study. At day 0, mice were anesthetized with isoflurane and held in a dorsal recumbent position for administration of 0.1×TCID50/mouse virus (new batch) by internasal instillation, from day 2 post challenge, mice were received a single dose of different concentrations of test article or vehicle control once a day up to 15th day with dose initiation on day 2 post challenge. Group 1 served as an infected control group and was treated with vehicle (35% ethanol). 7% of (pyrrolidin-2-yl)methyl 2-[(2,3-dimethylphenyl)amino]benzoate hydrochloride in 35% ethanol (low dose: 25.0 mg/kg, group 2, mid dose: 50.1 mg/kg, group 3, and high dose: 100.1 mg/kg, group 4) and 7% of (pyrrolidin-2-yl)methyl α-methyl-4-(2-thienylcarbonyl)benzeneacetate hydrochloride in 35% ethanol (low dose: 24.9 mg/kg, group 5, mid dose: 49.8 mg/kg, group 6, and high dose: 99.6 mg/kg, group 7) and vehicle (35% ethanol) were given by transdermal on the back of animal in an area of 2 cm×5 cm, 1.5 cm×3.5 cm, or 1 cm×2.5 cm for high, middle or low dose. Mice were observed following viral challenge for clinical signs of illness including body weights, health score, morbidity and mortality.
Lung lesions and peribronchiolitis of all deceased and surviving animals were characterized (Table 11).

[10] = test system: H1N1 virus; assay: H1N1 virus infection mouse model (Example 68); type: in vivo, mice; details: transdermal once a day
Experimental: A total of seventy mice (7 groups, 10/group) were used in this study. At day 0, mice were anesthetized with isoflurane and held in a dorsal recumbent position for administration of 0.1×TCID50/mouse virus (new batch) by internasal instillation, from day 2 post challenge, mice were received a single dose of different concentrations of test article or vehicle control once a day up to 15th day with dose initiation on day 2 post challenge. Group 1 served as an infected control group and was treated with vehicle (35% ethanol). 7% (pyrrolidin-2-yl)methyl 5-(2,4-difluorophenyl) salicylate hydrochloride in 35% ethanol (low dose: 25.0 mg/kg, group 2, mid dose: 49.9 mg/kg, group 3, and high dose: 99.8 mg/kg, group 4) and 7% (pyrrolidin-2-yl)methyl 5-(2,4-difluorophenyl) acetylsalicylate hydrochloride in 35% ethanol (low dose: 24.7 mg/kg, group 5, mid dose: 49.4 mg/kg, group 6, and high dose: 98.7 mg/kg, group 7) and vehicle (35% ethanol) were given by transdermal on the back of animal in an area of 2 cm×5 cm, 1.5 cm×3.5 cm, or 1 cm×2.5 cm for high, middle or low dose. Mice were observed following viral challenge for clinical signs of illness including body weights, health score, morbidity and mortality.
Lung lesions and peribronchiolitis of all deceased and surviving animals were characterized (Table 13).

[11] = T = 0 min (2 hours after LPS challenge), transdermal, 20 mg/kg
[12] = T = 90 min, transdermal, 20 mg/kg
[13] = T = 180 min, transdermal, 20 mg/kg
[14] = T = 270 min, transdermal, 20 mg/kg
[15] = 2 h (before test articles treatment)
[16] = 6 h (4 hours after administration)
[17] = time 0 (before carrageenan challenge)

Cl.O=C(Cc1ccccc1Nc1c(Cl)cccc1Cl)OCC1CCCN1 (centres unmarked) [Example 1]
body temperature (Mean) [1, 11]: 38.38 | body temperature (Mean) [1, 12]: 37.10 | body temperature (Mean) [1, 13]: 36.42 | body temperature (Mean) [1, 14]: 36.41 | Paw Volume Mean [2, 15]: 1.719 mL | Paw Volume Mean [2, 16]: 1.314 mL | Paw Volume Mean [2, 17]: 1.245 mL | survival ([3]; group 5, low dose 24.6 mg/kg): 70% | survival ([3]; group 6, mid dose 49.2 mg/kg): 60% | survival ([3]; group 7, high dose 98.4 mg/kg): 50% | The cumulative amount of test compounds ([4]; 1 h): 0.48 mg | The cumulative amount of test compounds ([4]; 2 h): 0.99 mg | The cumulative amount of test compounds ([4]; 4 h): 2.03 mg | The cumulative amount of test compounds ([4]; 8 h): 4.09 mg

CCN(CC)CCOC(=O)C(C)c1ccc(CC(C)C)cc1.Cl (centres unmarked) [Example 2]
body temperature (Mean) [1, 11]: 38.31 | body temperature (Mean) [1, 12]: 37.57 | body temperature (Mean) [1, 13]: 36.86 | body temperature (Mean) [1, 14]: 36.63 | Paw Volume Mean [2, 15]: 1.697 mL | Paw Volume Mean [2, 16]: 1.402 mL | Paw Volume Mean [2, 17]: 1.225 mL | survival ([5]; group 5, low dose 24.6 mg/kg): 60% | survival ([5]; group 6, mid dose 49.2 mg/kg): 50% | survival ([5]; group 7, high dose 98.4 mg/kg): 50% | survival ([6]; group 5, low dose 24.6 mg/kg): 50% | survival ([6]; group 6, mid dose 49.2 mg/kg): 50% | survival ([6]; group 7, high dose 98.4 mg/kg): 40% | survival ([7]; group 5, low dose 24.6 mg/kg): 40% | survival ([7]; group 6, mid dose 49.2 mg/kg): 60% | survival ([7]; group 7, high dose 98.4 mg/kg): 50%

CC(=O)O.CCN(CC)CCOC(=O)CC1=C(C)/C(=C/c2ccc([S+](C)[O-])cc2)c2ccc(F)cc21 (centres unmarked) [Example 8]
survival ([8]; group 5, low dose 25.5 mg/kg): 60% | survival ([8]; group 6, mid dose 50.9 mg/kg): 70% | survival ([8]; group 7, high dose 101.9 mg/kg): 50%

CC(C(=O)OCC1CCCN1)c1ccc(-c2ccccc2)c(F)c1.Cl (centres unmarked) [Example 15, (pyrrolidin-2-yl)methyl 2-(2-fluorobiphenyl-4-yl) propanoate hydrochloride]
body temperature (Mean) [1, 11]: 38.30 | body temperature (Mean) [1, 12]: 37.37 | body temperature (Mean) [1, 13]: 36.78 | body temperature (Mean) [1, 14]: 36.65 | survival ([8]; group 2, low dose 25.0 mg/kg): 40% | survival ([8]; group 3, mid dose 50.0 mg/kg): 50% | survival ([8]; group 4, high dose 100.0 mg/kg): 60%

COc1ccc2cc(C(C)C(=O)OCC3CCCN3)ccc2c1.Cl (centres unmarked) [Example 16, (pyrrolidin-2-yl)methyl 2-(6-methoxy-2-naphthyl) propanoate hydrochloride]
body temperature (Mean) [1, 11]: 38.30 | body temperature (Mean) [1, 12]: 37.38 | body temperature (Mean) [1, 13]: 36.79 | body temperature (Mean) [1, 14]: 36.53 | survival ([3]; group 2, low dose 25.1 mg/kg): 20% | survival ([3]; group 3, mid dose 50.2 mg/kg): 20% | survival ([3]; group 4, high dose 100.3 mg/kg): 40% | survival ([5]; group 2, low dose 25.1 mg/kg): 30% | survival ([5]; group 3, mid dose 50.2 mg/kg): 50% | survival ([5]; group 4, high dose 100.3 mg/kg): 50% | survival ([7]; group 2, low dose 25.1 mg/kg): 20% | survival ([7]; group 3, mid dose 50.2 mg/kg): 30% | survival ([7]; group 4, high dose 100.3 mg/kg): 40%

Cc1cccc(Nc2ccccc2C(=O)OCC2CCCN2)c1C.Cl (centres unmarked) [Example 17, (pyrrolidin-2-yl)methyl 2-[(2,3-dimethylphenyl)amino]benzoate hydrochloride]
survival ([9]; group 2, low dose 25.0 mg/kg): 30% | survival ([9]; group 3, mid dose 50.1 mg/kg): 50% | survival ([9]; group 4, high dose 100.1 mg/kg): 50%

Cl.O=C(OCC1CCCN1)c1cc(-c2ccc(F)cc2F)ccc1O (centres unmarked) [Example 27, (pyrrolidin-2-yl)methyl 5-(2,4-difluorophenyl) salicylate hydrochloride]
survival ([10]; group 2, low dose 25.0 mg/kg): 30% | survival ([10]; group 3, mid dose 49.9 mg/kg): 50% | survival ([10]; group 4, high dose 99.8 mg/kg): 60%

CC(=O)Oc1ccc(-c2ccc(F)cc2F)cc1C(=O)OCC1CCCN1.Cl (centres unmarked) [Example 28, (pyrrolidin-2-yl)methyl 5-(2,4-difluorophenyl) acetylsalicylate hydrochloride]
survival ([10]; group 5, low dose 24.7 mg/kg): 40% | survival ([10]; group 6, mid dose 49.4 mg/kg): 60% | survival ([10]; group 7, high dose 98.7 mg/kg): 70%

CC(C(=O)OCC1CCCN1)c1cccc(Oc2ccccc2)c1.Cl (centres unmarked) [Example 30, (pyrrolidin-2-yl)methyl 2-(3-phenoxyphenyl) propionate hydrochloride]
survival ([6]; group 2, low dose 25.1 mg/kg): 10% | survival ([6]; group 3, mid dose 50.2 mg/kg): 30% | survival ([6]; group 4, high dose 100.3 mg/kg): 40%

CC(C(=O)OCC1CCCN1)c1ccc(C(=O)c2cccs2)cc1.Cl (stereo not drawn) [Example 33, (pyrrolidin-2-yl)methyl α-methyl-4-(2-thienylcarbonyl)benzeneacetate hydrochloride]
survival ([9]; group 5, low dose 24.9 mg/kg): 60% | survival ([9]; group 6, mid dose 49.8 mg/kg): 50% | survival ([9]; group 7, high dose 99.6 mg/kg): 40%

CC(C)Cc1ccc(C(C)C(=O)O)cc1 (centres unmarked) [Ibuprofen, reference compound]
body temperature (Mean) ([1]; T = 0 min (2 hours after LPS challenge), group C, topical, 100 mg/kg, 7% in 70% ethanol): 38.18 | body temperature (Mean) ([1]; T = 90 min, group B, oral, 100 mg/kg): 38.01 | body temperature (Mean) ([1]; T = 90 min, group C, topical, 100 mg/kg, 7% in 70% ethanol): 38.26 | body temperature (Mean) ([1]; T = 180 min, group B, oral, 100 mg/kg): 37.34 | body temperature (Mean) ([1]; T = 180 min, group C, topical, 100 mg/kg, 7% in 70% ethanol): 38.27 | body temperature (Mean) ([1]; T = 270 min, group B, oral, 100 mg/kg): 37.02 | body temperature (Mean) ([1]; T = 270 min, group C, topical, 100 mg/kg, 7% in 70% ethanol): 37.98 | antipyretic activity (in words) ([1]; topical, 100 mg/kg): did not show any antipyretic activity | anti-inflammatory activity (in words) ([2]; topical, 100 mg/kg): did not show any anti-inflammatory activity
